Experimental data from the OligoGym collection.
These antisense oligonucleotides have a phosphorothioate backbone; sugars and methylation of C are not fully specified.

Target: AKT1
Conditions: ASO
Also: test concentration or dose not given here.

Compared with GGCAGCCCCTTTGACTTC, GGCTTGAAGGGTGGGCTG is higher in remaining target (mRNA or protein) (fraction of control): 0.47 for the first, 0.59 for the second.

Going from GGTCAGGTGGTGTGATGG to GTGCCGCAAAAGGTCTTC, the remaining target (mRNA or protein) (fraction of control) falls from at least 1 to 0.34.

Compared with TAAAACCCGCAGGATAGT, TACTCAGGTGTGCCGCAA is higher in remaining target (mRNA or protein) (fraction of control): 0.26 for the first, 0.34 for the second.

First: TACTCCCCTCGTTTGTGC
Second: TCAAAATACCTGGTGTCA
The remaining target (mRNA or protein) (fraction of control) of the first is higher: at least 1 for the first, 0.49 for the second.

First: TCCTCCTCCTCCTGCTTC
Second: TGCCATCATTCTTGAGGA
The remaining target (mRNA or protein) (fraction of control) of the first is higher: 0.91 for the first, 0.35 for the second.

For TTTTCTTCCCTACCCCGC, the remaining target (mRNA or protein) (fraction of control) was 0.36.

Target: ETS2
Conditions: ASO

AACCCGTTGCACATCCAG and AATAGTCTGTGTGTGTCC cannot be ordered by remaining target (mRNA or protein) (fraction of control): at least 1 for the first, at least 1 for the second.

First: AGCTGTCCGCACCGTTCT
Second: AGGAGCGGGAGGAGGAGG
The remaining target (mRNA or protein) (fraction of control) of the first is higher: at least 1 for the first, 0.87 for the second.

Going from ATCCGTCTCCAGTCCAGC to CAAGTTGCTGCCTGGGAA, the remaining target (mRNA or protein) (fraction of control) falls from 0.8 to 0.39.

Going from CACAGTTGGCGGAGTCAT to CAGCTCCAGGAGAAACTG, the remaining target (mRNA or protein) (fraction of control) rises from 0.45 to at least 1.

CATGGTTGTTTCCTTCCC and CATTCATGCCGAACCTCT cannot be ordered by remaining target (mRNA or protein) (fraction of control): at least 1 for the first, at least 1 for the second.

Compared with CCAGAGACGATCAGGGAG, CCGACGTCTTGTGGATGA is lower in remaining target (mRNA or protein) (fraction of control): at least 1 for the first, 0.45 for the second.

CGGCGCTTGGTCGGGACG and CGTCCCACGGACTGCCAG cannot be ordered by remaining target (mRNA or protein) (fraction of control): at least 1 for the first, at least 1 for the second.

First: CTGCCTTTCCTGGGTCCT
Second: CTTAAAAGCACTGTGAGT
The remaining target (mRNA or protein) (fraction of control) of the first is higher: at least 1 for the first, 0.63 for the second.

First: GAAGCCACTGGCATACCT
Second: GAGGCAGCCTGGTCAAGA
The remaining target (mRNA or protein) (fraction of control) of the first is higher: 0.64 for the first, 0.61 for the second.

First: GCAGGTATAACTGGTTTG
Second: GCGTGCAGTTCCTCGGGC
The remaining target (mRNA or protein) (fraction of control) of the first is higher: at least 1 for the first, 0.81 for the second.

Compared with GGAACGGAGGTGAGGTGT, GGACGGCCGAGTGGAGGG is higher in remaining target (mRNA or protein) (fraction of control): 0.61 for the first, 0.81 for the second.

Compared with GGAGCTGAGCCGAGACTT, GGCCACTTTCCTGGACAT is higher in remaining target (mRNA or protein) (fraction of control): 0.51 for the first, at least 1 for the second.

First: GGCCGGCTCAGGGTGGTC
Second: GGCTGGCGCTTGAGTGTC
The remaining target (mRNA or protein) (fraction of control) of the first is lower: 0.51 for the first, 0.7 for the second.

Going from GGGACCCATCAAAGGTGT to GGGTAATTCTGTGTCTGC, the remaining target (mRNA or protein) (fraction of control) rises from 0.66 to 0.96.

First: GGGTCACTCCTCTCTTGG
Second: GTCCATATTCTTGATTCC
The remaining target (mRNA or protein) (fraction of control) of the first is lower: 0.75 for the first, at least 1 for the second.

First: GTGCCAAAACCTAATGTA
Second: TAAGGCTTGACTCATCAC
The remaining target (mRNA or protein) (fraction of control) of the first is lower: 0.66 for the first, at least 1 for the second.

Compared with TCGTAATAGTAGCGTAAG, TGCCAGCTCCAGAAAGCG is lower in remaining target (mRNA or protein) (fraction of control): 0.85 for the first, 0.84 for the second.

First: TGGCTTATTGAGGCAGAG
Second: TGTTCCCAGAGAATGTCA
The remaining target (mRNA or protein) (fraction of control) of the first is higher: 0.94 for the first, 0.63 for the second.

Compared with TTCTTTGGAATGCCCAGG, TTGCAGTGTTTGCTCTTC is higher in remaining target (mRNA or protein) (fraction of control): 0.93 for the first, at least 1 for the second.

TTTCCTCTTTCCCCACCG and TTTCTTGGTTTTCTTTGA cannot be ordered by remaining target (mRNA or protein) (fraction of control): at least 1 for the first, at least 1 for the second.

Target: GNAI1
Conditions: ASO

Going from AAACTAAAGTCATAAATA to AACCAGGTCGTAGTCACT, the remaining target (mRNA or protein) (fraction of control) falls from at least 1 to 0.45.

Compared with AATCCTAAGTTGCCACTC, ACTGCTTTGTATTGTTTA is higher in remaining target (mRNA or protein) (fraction of control): 0.4 for the first, 0.94 for the second.

First: AGAACAACTTTGGTCAAG
Second: AGCCCTAATGATAGCAAT
The remaining target (mRNA or protein) (fraction of control) of the first is higher: 0.88 for the first, 0.33 for the second.

Compared with AGTCTATCTTCAACCTCC, ATAAAGCCTTCTTCAGCA is lower in remaining target (mRNA or protein) (fraction of control): 0.92 for the first, 0.78 for the second.

First: ATTCAAATAGTATGCTGC
Second: ATTTCCTTTGTGTCCTTT
The remaining target (mRNA or protein) (fraction of control) of the first is higher: at least 1 for the first, 0.41 for the second.

First: CAAAGCCATCACCCTAAA
Second: CAAGTCATTCAAATAGTA
The remaining target (mRNA or protein) (fraction of control) of the first is lower: 0.43 for the first, at least 1 for the second.

First: CAATTCCTGTAGTTTTCA
Second: CACATTCTTAGTATCTGT
The remaining target (mRNA or protein) (fraction of control) of the first is lower: 0.8 for the first, 0.85 for the second.

Going from CATGAACATAAATAAAGC to CCACTATCTTTCCACAAT, the remaining target (mRNA or protein) (fraction of control) falls from at least 1 to 0.84.

Compared with CCGGGCTGAGTCACCAAA, CCTTCTGTTACTTTCAGT is higher in remaining target (mRNA or protein) (fraction of control): 0.31 for the first, 0.75 for the second.

First: CTCCTCTTCTGAATAACC
Second: CTTTTACCAGATTCACCA
The remaining target (mRNA or protein) (fraction of control) of the first is lower: 0.79 for the first, 0.96 for the second.

First: GCATTCGGTTCATTTCTT
Second: GTATAATGGATGTATCTG
The remaining target (mRNA or protein) (fraction of control) of the first is lower: 0.58 for the first, 0.86 for the second.

Compared with GTTGAGTCGGGATGTAAT, TAAAAGAGACCACAATCT is lower in remaining target (mRNA or protein) (fraction of control): at least 1 for the first, 0.81 for the second.

Going from TAATAGTCTGTCATTCAG to TAGATAAGGGCTGTAATG, the remaining target (mRNA or protein) (fraction of control) falls from 0.95 to 0.87.

TCACCAAAGTCTATCTTC and TCACCCTAAAATCCTAAG cannot be ordered by remaining target (mRNA or protein) (fraction of control): at least 1 for the first, at least 1 for the second.

Compared with TCATCTTACTCCGCTCCA, TCATTTCTTCATCTTCAG is higher in remaining target (mRNA or protein) (fraction of control): 0.66 for the first, at least 1 for the second.

Compared with TCCCCATAGCCCTAATGA, TCTTTTATTGAGGTCTTC is higher in remaining target (mRNA or protein) (fraction of control): 0.21 for the first, at least 1 for the second.

Going from TGATCCAAAGGCAGGTGT to TGTGTCCTTTCTTTTATT, the remaining target (mRNA or protein) (fraction of control) rises from 0.27 to 0.63.

Compared with TTAAGAACATTTCAATAA, TTATGTTATTTCCAAAGC is lower in remaining target (mRNA or protein) (fraction of control): 0.99 for the first, 0.87 for the second.

Going from TTCAACCTCCCCATAGCC to TTCTGTCCAAGTCATTCA, the remaining target (mRNA or protein) (fraction of control) falls from 0.81 to 0.64.

Going from TTTCCACAATCTCTTTAT to TTTGAAAGTAAAATGGGT, the remaining target (mRNA or protein) (fraction of control) rises from 0.92 to at least 1.

Target: GNAI3
Conditions: ASO

First: AAATGTGTTTCTACAATG
Second: AAGGTGTCTGGTCTCAAC
The remaining target (mRNA or protein) (fraction of control) of the first is higher: 0.9 for the first, 0.56 for the second.

First: AAGTTCCCTAATACAAAA
Second: AATGATTGAAGTTTCTGT
The remaining target (mRNA or protein) (fraction of control) of the first is higher: 0.85 for the first, 0.73 for the second.

Compared with AATGTAGTTAGACTGGGA, AATTCCAATGTCTGACTT is higher in remaining target (mRNA or protein) (fraction of control): 0.46 for the first, 0.51 for the second.

Compared with ACAATGCCTGTGGTCTTC, ACACTGTAGTAACTTTCA is lower in remaining target (mRNA or protein) (fraction of control): at least 1 for the first, 0.6 for the second.

Target: MAP2K7
Conditions: ASO

First: ACTCAGGTCTTCGCCATGAC
Second: ACTGTCCTGTTGCCAGCTCC
The remaining target (mRNA or protein) (fraction of control) of the first is higher: 0.76 for the first, 0.58 for the second.

Going from AGACAAACACCTCGTGCCGA to AGAGCTTGATCTGGCCCCGC, the remaining target (mRNA or protein) (fraction of control) falls from 0.88 to 0.84.

Compared with AGGACGCCGCCATCTTCCCC, AGGCGGCACAGCCGGCGCTC is higher in remaining target (mRNA or protein) (fraction of control): 0.7 for the first, 0.95 for the second.

Compared with AGTCCGCGGTGACTCAGGTC, ATGGCGATGAAGACGTCCGT is lower in remaining target (mRNA or protein) (fraction of control): 0.87 for the first, 0.84 for the second.

Compared with CACCTCCAGCGTCTCGTAGC, CAGGGAGGACGCCGCCATCT is higher in remaining target (mRNA or protein) (fraction of control): 0.45 for the first, at least 1 for the second.

Going from CATCTTCCCCGCCGCCACCG to CCCAGGCTCCATACGTCGGC, the remaining target (mRNA or protein) (fraction of control) rises from 0.68 to 0.74.

Going from CCCCGAGAAGCCCATGTGTC to CCGCCATCTTCCCCGCCGCC, the remaining target (mRNA or protein) (fraction of control) rises from 0.69 to 0.9.

Going from CGCCGCCATCTTCCCCGCCG to CGCGCACCGCCCGGCCGCCC, the remaining target (mRNA or protein) (fraction of control) falls from 0.99 to 0.46.

Going from CGTCAGTCCGGCAGACAAAC to CTGAGGATGGCGAGCGGCTG, the remaining target (mRNA or protein) (fraction of control) rises from 0.91 to at least 1.

Going from CTGGCTCAAGGAACGCCGTT to CTTTAGTAAGGCAGTCTTTG, the remaining target (mRNA or protein) (fraction of control) falls from at least 1 to 0.7.

Compared with GACGCCGCCATCTTCCCCGC, GAGTCCACCAGGCGGCCGCT is lower in remaining target (mRNA or protein) (fraction of control): 0.7 for the first, 0.66 for the second.

First: GCACCACATCCAGGTCCATG
Second: GCCATCTTCCCCGCCGCCAC
The remaining target (mRNA or protein) (fraction of control) of the first is lower: 0.58 for the first, 0.75 for the second.

First: GCCGTTAGTCCGCGGTGACT
Second: GCGGGACAGCTTCTGTTCCA
The remaining target (mRNA or protein) (fraction of control) of the first is lower: 0.72 for the first, at least 1 for the second.

Going from GGAGCGCCGCATTTGCTTAA to GGAGGGCTTGACGTCGCGGT, the remaining target (mRNA or protein) (fraction of control) rises from 0.75 to 0.96.

First: GGGAGGACGCCGCCATCTTC
Second: GGTAGTACAGCGCCTTCACA
The remaining target (mRNA or protein) (fraction of control) of the first is lower: 0.34 for the first, 0.82 for the second.

First: GGTTGGCCGCCGGCCAAAGC
Second: TAGCCCGTCTGCTTCATGAT
The remaining target (mRNA or protein) (fraction of control) of the first is higher: at least 1 for the first, 0.76 for the second.

Going from TCATAGTCCGGCTTGGTGGG to TCCAGGGAGGACGCCGCCAT, the remaining target (mRNA or protein) (fraction of control) falls from at least 1 to 0.64.

Going from TCCAGGTTGAGGTCGATCCT to TCTTCCCCGCCGCCACCGCC, the remaining target (mRNA or protein) (fraction of control) rises from 0.68 to 0.77.

First: TGAACGTCCCAAAGCACTGC
Second: TGTCATCTTGCCCAGAATGC
The remaining target (mRNA or protein) (fraction of control) of the first is higher: 0.86 for the first, 0.68 for the second.

Compared with TTCCGGAAGCGCATCTTCCA, TTCTCCTGCTTCAGCTTTGC is lower in remaining target (mRNA or protein) (fraction of control): 0.86 for the first, 0.69 for the second.
